Key:
Experiment in all cases: Soil treatment test for upland field
Design in all cases: key: 0: normal development; 1: Less damaged; 2: Slightly damaged; 3: Moderately damaged; 4: Severely damaged; 5: All killed
Settings in all cases: 500 g/ha, glass house 25° C., 3 weeks
sugar beat = type: in vivo
From the text: (§1) (0: normal development, 1: Less damaged, 2: Slightly damaged, 3: Moderately damaged, 4: Severely damaged, 5: All killed).
(§2) Wagner pots, each having an area of 1/5000 are, were packed with Ube soil (alluvial soil), and then each seed of corn, soybean, cotton, wheat, solgum, sugar beat, Large crabgrass, barnyardgrass, green foxtail, blackgrass, annual bluegrass, common lambsquartes, livid amaranth and velvetleaf were planted and covered with soil.
(§3) Each wettable powder of the desired compounds (I) shown in Table 1 prepared in accordance with Example 2 was diluted with water containing a surfactant (0.05%) and uniformly sprayed on the surface of each soil so that an effective concentration of the compound (I) in each herbicide became 500 g/ha. These plants were controlled in a glass house at an average temperature of 25° C. for 3 weeks, and then herbicidal effects thereof were investigated.
(§4) The herbicidal effects were evaluated according to the evaluation method described in the above (1).

solgum = type: in vivo
From the text: as §1, §2, §3, §4

soybean = type: in vivo
From the text: as §1, §2, §3, §4

corn = type: in vivo
From the text: as §1, §2, §3, §4

cotton = type: in vivo
From the text: as §1, §2, §3, §4

wheat = type: in vivo
From the text: as §1, §2, §3, §4

green foxtail = type: in vivo, Setaria viridis
From the text: as §1, §2, §3, §4

common lambsquartes = type: in vivo, Chenopodium album
From the text: as §1, §2, §3, §4

Large crabgrass = type: in vivo, Digitaria adscendens
From the text: as §1, §2, §3, §4

livid amaranth = type: in vivo, Amaranthus lividus
From the text: as §1, §2, §3, §4

annual bluegrass = type: in vivo, Poa annua
From the text: as §1, §2, §3, §4

barnyardgrass = type: in vivo, Echinochloa crusgalli
From the text: as §1, §2, §3, §4

velvetleaf = type: in vivo, Abutilon theophrasti
From the text: as §1, §2, §3, §4

blackgrass = type: in vivo, Alopecurus aegualis
From the text: as §1, §2, §3, §4

Row | SMILES | Effects Sugar beat (sugar beat) | Effects Solgum (solgum) | Effects Soybean (soybean) | Effects Corn (corn) | Effects Cotton (cotton) | Effects Wheat (wheat) | Effects Green foxtail (green foxtail) | Effects Common lambsquarters (common lambsquartes) | Effects Large crabgrass (Large crabgrass) | Effects Livid amaranth (livid amaranth) | Effects Annual bluegrass (annual bluegrass) | Effects Barnyardgrass (barnyardgrass) | Effects Velvetleaf (velvetleaf) | Effects Blackgrass (blackgrass)
1 | CCC(Oc1ccc(F)c(C(F)(F)F)c1)c1nc2ccc([N+](=O)[O-])cc2o1 (centres unmarked) [Compound 39] | 2 | 0 | 0 | 0 | 1 | 0 | 4 | 3 | 4 | 5 | 4 | – | – | –
2 | CCC(Oc1cccc(C(F)(F)F)c1)c1nc2ccc(C(F)(F)F)cc2o1 (centres unmarked) [Compound 94] | 2 | 0 | 0 | 0 | – | 0 | 4 | 1 | 5 | 5 | 1 | 3 | 0 | –
3 | CCC(Oc1cccc(C(F)(F)F)c1)c1nc2cc(I)ccc2o1 (centres unmarked) [Compound 172] | 0 | 0 | 0 | 0 | 0 | 0 | 5 | – | 5 | 5 | 3 | – | – | 1
4 | CCC(Oc1ccc(F)c(C(F)(F)F)c1)c1nc2cc(S(C)(=O)=O)ccc2o1 (centres unmarked) [Compound 215] | 5 | 0 | 0 | 0 | 1 | 0 | 4 | 4 | 5 | 5 | 3 | – | 5 | –
5 | CCC(Oc1cccc(C(F)(F)F)c1)c1nc2cc(S(C)(=O)=O)ccc2o1 (centres unmarked) [Compound 216] | 5 | 0 | 0 | 0 | 0 | 0 | 5 | 5 | 4 | 5 | 2 | 3 | 3 | –
6 | CCC(Oc1ccc(F)c(C(F)(F)F)c1)c1nc2cc(Cl)c([N+](=O)[O-])cc2o1 (centres unmarked) [Compound 334, 1-(5-chloro-6-nitrobenzoxazol-2-yl)-1-(4-fluoro-3-(trifluoromethyl)phenoxy)propane] | 3 | 1 | 0 | 0 | 1 | 2 | 5 | 2 | 5 | 5 | 4 | 3 | – | 4
7 | CCC(Oc1ccc(Cl)c(C(F)(F)F)c1)c1nc2cc([N+](=O)[O-])ccc2o1 (centres unmarked) [Compound 432] | 5 | 2 | 0 | 0 | 0 | 0 | 5 | 3 | 5 | 5 | 5 | 4 | 2 | 3
8 | CCC(Oc1cccc(C#N)c1)c1nc2cc(Cl)c(C)cc2o1 (centres unmarked) [Compound 481] | 3 | 0 | 0 | 0 | 0 | 0 | 4 | 2 | 5 | 4 | 2 | – | 3 | –
9 | CCCC(Oc1cccc(C#N)c1)c1nc2cc(Cl)c(C)cc2o1 (centres unmarked) [Compound 484] | 5 | 0 | 0 | 1 | 0 | 0 | 5 | 5 | 5 | 5 | 5 | – | 5 | –
10 | CCC(Oc1ccc(F)c(C(F)(F)F)c1)c1nc2cc(S(C)(=O)=O)c(C)cc2o1 (centres unmarked) [Compound 487] | 5 | 0 | 0 | 0 | 0 | 0 | 3 | 4 | 5 | 5 | 4 | 2 | 3 | –
11 | CCC(Oc1cccc(C#N)c1)c1nc2cc(S(C)(=O)=O)ccc2o1 (centres unmarked) [Compound 507] | 0 | 0 | 0 | 0 | 0 | 0 | 3 | 5 | – | 5 | – | – | – | –
12 | CCCC(Oc1cccc(C#N)c1)c1nc2cc(S(C)(=O)=O)ccc2o1 (centres unmarked) [Compound 508] | 4 | 0 | 0 | 0 | 0 | 0 | 5 | 3 | 4 | 5 | 2 | – | 3 | –
13 | CCC(Oc1ccc(Cl)c(C#N)c1)c1nc2cc(S(C)(=O)=O)ccc2o1 (centres unmarked) [Compound 509] | 5 | 0 | 0 | 0 | 0 | 0 | 3 | 5 | 2 | 5 | – | – | 3 | –

From US6706664B1, “Benzoxazole compounds, process for the preparation thereof and herbicides” (UBE Industries, Ltd., priority 1999, dated 2004)
